Source: the supplement of paper PMC10307832

Assays:
Assay in all cases: relative viability (nuclei count vs DMSO), 5 days (fraction); higher = more cells survive
[1] = compound: CC1=CC(=CC=C1)NC2=NC(=CS2)C3=CC=NC=C3 + NC(=O)Nc1cc(-c2cccc(F)c2)sc1C(=O)N[C@H]1CCCNC1 [AZD7762] (partner 0.2 µM)
Outline: (§1)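 Lung cancer cell lines were pin-tool dosed in 1536-well plates on the day after seeding, with either a lone drug or a fixed anchor-drug dose plus five library-drug doses (not always all listed) in √10 steps. Nuclei were counted on 4× images after 5 days. Relative viability is the ratio of treated-well to vehicle-well nuclei counts, with each value a median of duplicate plates.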

[2] = compound: CC1=CC(=CC=C1)NC2=NC(=CS2)C3=CC=NC=C3 + Cc1cc(Nc2cc(N3CCN(C)CC3)nc(Sc3ccc(NC(=O)C4CC4)cc3)n2)n[nH]1 [Tozasertib] (partner 0.1 µM)
Outline: as §1

[3] = compound: CC1=CC(=CC=C1)NC2=NC(=CS2)C3=CC=NC=C3 + Nc1nc2[nH]cc(CCc3ccc(C(=O)N[C@@H](CCC(=O)O)C(=O)O)cc3)c2c(=O)[nH]1 [Pemetrexed] (partner 0.2 µM)
Outline: as §1

Masitinib + Phenformin = compound: Cc1ccc(NC(=O)c2ccc(CN3CCN(C)CC3)cc2)cc1Nc1nc(-c2cccnc2)cs1 [Masitinib] + N=C(N)NC(=N)NCCc1ccccc1 [Phenformin] (partner 250 µM)
Outline: as §1

| Cell Line | relative viability ([1]; first compound 0.08 µM) | relative viability ([1]; first compound 0.253 µM) | relative viability ([1]; first compound 0.8 µM) | relative viability ([1]; first compound 2.53 µM) | relative viability ([1]; first compound 8 µM) | relative viability ([2]; first compound 0.08 µM) | relative viability ([2]; first compound 0.253 µM) | relative viability ([2]; first compound 0.8 µM) | relative viability ([2]; first compound 2.53 µM) | relative viability ([2]; first compound 8 µM) | relative viability ([3]; first compound 0.08 µM) | relative viability ([3]; first compound 0.253 µM) | relative viability ([3]; first compound 0.8 µM) | relative viability ([3]; first compound 2.53 µM) | relative viability ([3]; first compound 8 µM) | relative viability (Masitinib + Phenformin; first compound 0.01 µM) | relative viability (Masitinib + Phenformin; first compound 0.03162 µM) | relative viability (Masitinib + Phenformin; first compound 0.1 µM) | relative viability (Masitinib + Phenformin; first compound 0.3162 µM) | relative viability (Masitinib + Phenformin; first compound 1 µM) |
| --- | --- | --- | --- | --- | --- | --- | --- | --- | --- | --- | --- | --- | --- | --- | --- | --- | --- | --- | --- | --- |
| HCC-827 | 0.352 | 0.418 | 0.53 | 0.216 | 0.28 | 0.415 | 0.392 | 0.45 | 0.409 | 0.391 | 0.283 | 0.274 | 0.282 | 0.256 | 0.272 | 0.395 | 0.433 | 0.382 | 0.411 | 0.318 |
| HOP-62 | 0.629 | 0.598 | 0.619 | 0.861 | 0.578 | 0.378 | 0.381 | 0.363 | 0.41 | 0.421 | 0.325 | 0.412 | 0.458 | 0.369 | 0.319 | 0.55 | 0.744 | 0.668 | 0.827 | 0.691 |
| LC-2-ad | 0.823 | 0.845 | 0.911 | 0.835 | 0.821 | 0.448 | – | 0.398 | 0.371 | 0.384 | 0.269 | 0.281 | 0.308 | 0.258 | 0.276 | 0.517 | 0.573 | 0.622 | 0.627 | 0.557 |
| LCLC-97TM1 | 0.338 | 0.292 | 0.379 | 0.246 | 0.376 | 0.2 | 0.236 | 0.246 | 0.177 | 0.325 | 0.168 | 0.161 | 0.19 | 0.168 | 0.182 | – | 0.458 | 0.407 | 0.492 | 0.446 |
| LCLC-103H | 0.73 | 0.755 | 0.725 | 0.74 | 0.651 | 0.529 | 0.405 | 0.427 | 0.429 | 0.388 | 0.415 | 0.434 | 0.45 | 0.46 | 0.488 | 0.339 | 0.348 | 0.306 | 0.344 | 0.293 |
| LK-2 | – | 0.429 | 0.555 | 0.36 | 0.618 | – | 0.175 | 0.173 | – | 0.184 | – | 0.315 | 0.263 | 0.135 | 0.347 | 0.481 | 0.347 | 0.423 | 0.535 | 0.43 |
| NCI-H520 | – | – | – | – | – | 0.372 | 0.458 | 0.481 | 0.514 | 0.458 | 0.706 | 0.678 | 0.677 | 0.865 | 0.644 | 0.633 | 0.648 | 0.664 | 0.584 | 0.457 |
| NCI-H661 | – | – | – | – | – | 0.33 | 0.367 | 0.353 | 0.341 | 0.333 | 0.876 | 0.959 | 0.889 | 0.907 | 0.871 | 0.267 | 0.286 | 0.254 | 0.26 | 0.267 |
| NCI-H727 | 0.669 | – | 0.745 | – | 0.507 | – | 0.582 | 0.539 | 0.58 | 0.458 | – | – | – | – | – | 0.641 | 0.636 | 0.5 | 0.616 | 0.44 |
